Like-named read-outs stand apart in the source and are kept apart here.
Assays:
[1] = test system: Key Broadleaf Weed and Crop Species; experiment: Post-emergent Test II herbicidal activity (Table 5); format: in vivo; settings: post-emergence, 336 h, 14 days after application; for pest or weed control at 70 g/ha: application rate 70 g ai/ha; for pest or weed control at 140 g/ha: application rate 140 g ai/ha
How it was run: (§1)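 Injury was rated visually 14 d after treatment on a 0–100% scale against untreated controls. Test compounds, formulated with crop oil concentrate and surfactant and serially diluted down to 1/16× of the top rate, were applied by track sprayer at 187 L/ha onto first- to second-true-leaf seedlings.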

[2] = test system: Key Grass and Sedge Weeds as well as Grass Crops; experiment: Post-emergent Test II herbicidal activity (Table 6); format: in vivo; settings: post-emergence, 336 h; for pest or weed control at 70 g/ha: 70 g ai/ha; for pest or weed control at 140 g/ha: 140 g ai/ha
How it was run: as §1

[3] = ABUTH: velvetleaf (Abutilon theophrasti), read-out: Visual Growth Reduction (%) 14 Days After Application, ABUTH
[4] = AMARE: redroot pigweed (Amaranthus retroflexus), read-out: Visual Growth Reduction (%) 14 Days After Application, AMARE
[5] = BRSNN: oilseed-rape, canola (Brassica napus), read-out: Visual Growth Reduction (%) 14 Days After Application, BRSNN
[6] = CHEAL: lambsquarters (Chenopodium album), read-out: Visual Growth Reduction (%) 14 Days After Application, CHEAL
[7] = EPHHL: wild poinsettia (Euphorbia heterophylla), read-out: Visual Growth Reduction (%) 14 Days After Application, EPHHL
[8] = HELAN: sunflower (Helianthus annuus), read-out: Visual Growth Reduction (%) 14 Days After Application, HELAN
[9] = VIOTR: wild pansy (Viola tricolor), read-out: Visual Growth Reduction (%) 14 Days After Application, VIOTR
[10] = CYPES: yellow nutsedge (Cyperus esculentus), read-out: Visual Growth Reduction (%) 14 Days After Application, CYPES
[11] = DIGSA: crabgrass (Digitaria sanguinalis), read-out: Visual Growth Reduction (%) 14 Days After Application, DIGSA
[12] = ECHCG: barnyardgrass (Echinochloa crus-galli), read-out: Visual Growth Reduction (%) 14 Days After Application, ECHCG
[13] = ORYSA: rice (Oryza sativa), crop, read-out: Visual Growth Reduction (%) 14 Days After Application, ORYSA
[14] = SETFA: giant foxtail (Setaria faberi), read-out: Visual Growth Reduction (%) 14 Days After Application, SETFA
[15] = SORVU: grain sorghum (Sorghum vulgare), read-out: Visual Growth Reduction (%) 14 Days After Application, SORVU
[16] = TRZSS (wheat, Triticum aestivum), crop, read-out: Visual Growth Reduction (%) 14 Days After Application, TRZSS
[17] = ZEAMX: maize, corn (Zea mays), crop, read-out: Visual Growth Reduction (%) 14 Days After Application, ZEAMX

Compound | pest or weed control at 70 g/ha [1, 3] | pest or weed control at 140 g/ha [1, 3] | pest or weed control at 70 g/ha [1, 4] | pest or weed control at 140 g/ha [1, 4] | pest or weed control at 70 g/ha [1, 5] | pest or weed control at 140 g/ha [1, 5] | pest or weed control at 70 g/ha [1, 6] | pest or weed control at 140 g/ha [1, 6] | pest or weed control at 70 g/ha [1, 7] | pest or weed control at 140 g/ha [1, 7] | pest or weed control at 70 g/ha [1, 8] | pest or weed control at 140 g/ha [1, 8] | pest or weed control at 70 g/ha [1, 9] | pest or weed control at 140 g/ha [1, 9] | pest or weed control at 70 g/ha [2, 10] | pest or weed control at 140 g/ha [2, 10] | pest or weed control at 70 g/ha [2, 11] | pest or weed control at 140 g/ha [2, 11] | pest or weed control at 70 g/ha [2, 12] | pest or weed control at 140 g/ha [2, 12] | other results
Nc1c(F)c(-c2ccc(Br)c(F)c2F)nc(C(=O)O)c1Cl [Compound 147] | 95 to 100% | 0 to 29% | 95 to 100% | 95 to 100% | 95 to 100% | 95 to 100% | 95 to 100% | 95 to 100% | 95 to 100% | 95 to 100% | 95 to 100% | 95 to 100% | 95 to 100% | 95 to 100% | 95 to 100% | 95 to 100% | 85 to 94% | 95 to 100% | 95 to 100% | 95 to 100% | pest or weed control at 70 g/ha [2, 13]: 60 to 74%; pest or weed control at 140 g/ha [2, 13]: 75 to 84%; pest or weed control at 70 g/ha [2, 14]: 0 to 29%; pest or weed control at 140 g/ha [2, 14]: 95 to 100%; pest or weed control at 70 g/ha [2, 15]: 95 to 100%; pest or weed control at 140 g/ha [2, 15]: 95 to 100%; pest or weed control at 70 g/ha [2, 16]: 60 to 74%; pest or weed control at 140 g/ha [2, 16]: 60 to 74%; pest or weed control at 70 g/ha [2, 17]: 95 to 100%; pest or weed control at 140 g/ha [2, 17]: 95 to 100%
COC(=O)c1nc(-c2ccc(I)cc2)c(F)c(N)c1Cl [Compound 118, Methyl 4-amino-6-(4-iodophenyl)-3-chloro-5-fluoropicolinate] | 95 to 100% | 95 to 100% | 95 to 100% | 95 to 100% | 95 to 100% | 95 to 100% | 95 to 100% | 95 to 100% | 95 to 100% | 95 to 100% | 95 to 100% | 95 to 100% | 85 to 94% | 95 to 100% | 95 to 100% | 95 to 100% | 75 to 84% | 85 to 94% | 95 to 100% | 95 to 100% | pest or weed control at 70 g/ha [2, 13]: 30 to 44%; pest or weed control at 140 g/ha [2, 13]: 45 to 59%; pest or weed control at 70 g/ha [2, 14]: 45 to 59%; pest or weed control at 140 g/ha [2, 14]: 60 to 74%; pest or weed control at 70 g/ha [2, 15]: 95 to 100%; pest or weed control at 140 g/ha [2, 15]: 95 to 100%; pest or weed control at 70 g/ha [2, 16]: 75 to 84%; pest or weed control at 140 g/ha [2, 16]: 75 to 84%; pest or weed control at 70 g/ha [2, 17]: 60 to 74%; pest or weed control at 140 g/ha [2, 17]: 85 to 94%
